# Measurements published in patent publication US9487510B2, “Substituted heterocyclic acetamides as kappa opioid receptor (KOR) agonists” (Dr. Reddy's Laboratories Ltd., priority 2012, dated 2016).
# Target: human KOR receptor (Homo sapiens, UniProt P41145)
# Assay: IP-One HTRF assay, potency of KOR agonists, dose-response in transiently transfected COS-7 cells
# Assay type: cell-based
# human KOR receptor, sequence (P41145 whole entry): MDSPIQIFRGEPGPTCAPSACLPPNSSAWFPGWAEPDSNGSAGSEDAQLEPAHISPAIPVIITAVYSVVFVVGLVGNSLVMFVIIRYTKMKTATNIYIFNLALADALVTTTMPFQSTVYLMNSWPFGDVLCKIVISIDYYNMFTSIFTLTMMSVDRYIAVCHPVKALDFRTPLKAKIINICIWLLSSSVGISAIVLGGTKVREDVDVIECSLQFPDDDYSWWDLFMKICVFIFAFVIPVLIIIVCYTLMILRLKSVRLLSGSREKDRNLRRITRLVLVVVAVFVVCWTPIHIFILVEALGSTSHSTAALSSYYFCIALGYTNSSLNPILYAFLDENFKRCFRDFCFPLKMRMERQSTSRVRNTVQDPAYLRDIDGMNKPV
row,SMILES,EC50
1,"CN(C(=O)Cc1ccc2ncc(=O)[nH]c2c1)[C@H](CN1CC[C@H](O)C1)c1cccc(-c2ncon2)c1 [Example 190, N-((S)-1-(3-(1,2,4-oxadiazol-3-yl)phenyl)-2-((S)-3-hydroxypyrrolidin-1-yl)ethyl)-N-methyl-2-(3-oxo-3,4-dihydroquinoxalin-6-yl)acetamide 2,2,2-trifluoroacetate]",≤ 50 nM
2,"Cc1nnc(-c2cccc([C@@H](CN3CC[C@H](O)C3)N(C)C(=O)Cc3ccc4c(c3)NC(=O)C4)c2)o1 [Example 224, N-((S)-2-((S)-3-hydroxypyrrolidin-1-yl)-1-(3-(5-methyl-1,3,4-oxadiazol-2-yl)phenyl)ethyl)-N-methyl-2-(2-oxoindolin-6-yl)acetamide]",≤ 50 nM
3,"CN(C(=O)Cc1ccc2c(c1)NC(=O)C2)[C@H](CN1CC[C@H](O)C1)c1cccc(-c2ncon2)c1 [Example 185, N-((S)-1-(3-(1,2,4-oxadiazol-3-yl)phenyl)-2-((S)-3-hydroxypyrrolidin-1-yl)ethyl)-N-methyl-2-(2-oxoindolin-6-yl)acetamide 2,2,2-trifluoroacetate]",≤ 50 nM
4,"Cc1cc(C)cc([C@@H](CN2CCC(O)C2)N(C)C(=O)Cc2ccc3c(c2)NC(=O)CS3(=O)=O)c1 (stereo in doubt) [Example 147, N-((S)-1-(3,5-dimethylphenyl)-2-((S)-3-hydroxypyrrolidin-1-yl)ethyl)-2-(1,1-dioxido-3-oxo-3,4-dihydro-2H-benzo[b][1,4]thiazin-6-yl)-N-methylacetamide]",≤ 50 nM
5,"CN(C(=O)Cc1ccc2c(c1)NC(=O)C2)[C@H](CN1CC[C@H](O)C1)c1cccc(OCc2nn[nH]n2)c1 [Example 112, N-((S)-1-(3-((2H-tetrazol-5-yl)methoxy)phenyl)-2-((S)-3-hydroxypyrrolidin-1-yl)ethyl)-N-methyl-2-(2-oxoindolin-6-yl)acetamide]",51 to 100 nM
6,"CN(C(=O)Cc1ccc2c(c1)NC(=O)C2)[C@H](CN1CC[C@H](O)C1)c1cccc(-c2noc(C(F)(F)F)n2)c1 [Example 179, N-((S)-2-((S)-3-hydroxypyrrolidin-1-yl)-1-(3-(5-(trifluoromethyl)-1,2,4-oxadiazol-3-yl)phenyl)ethyl)-N-methyl-2-(2-oxoindolin-6-yl)acetamide]",≤ 50 nM
7,"CN(C(=O)Cc1ccc2c(c1)NC(=O)C2)[C@H](CN1CC[C@H](O)C1)c1cccc(-c2nnco2)c1 [Example 223, N-((S)-1-(3-(1,3,4-oxadiazol-2-yl)phenyl)-2-((S)-3-hydroxypyrrolidin-1-yl)ethyl)-N-methyl-2-(2-oxoindolin-6-yl)acetamide]",≤ 50 nM
8,"CO[C@H]1CCN(C[C@H](c2cccc(OC(F)(F)F)c2)N(C)C(=O)Cc2ccc3c(c2)NC(=O)CS3(=O)=O)C1 [Example 15, 2-(1,1-dioxido-3-oxo-3,4-dihydro-2H-benzo[b][1,4]thiazin-6-yl)-N-((S)-2-((S)-3-methoxypyrrolidin-1-yl)-1-(3-(trifluoromethoxy)phenyl)ethyl)-N-methylacetamide]",≤ 50 nM
9,"CN(C(=O)Cc1ccc2c(c1)NC(=O)CS2(=O)=O)[C@H](CN1CC[C@H](O)C1)c1cccc(OCC(N)=O)c1 [Example 168, N-((S)-1-(3-(2-amino-2-oxoethoxy)phenyl)-2-((S)-3-hydroxypyrrolidin-1-yl)ethyl)-2-(1,1-dioxido-3-oxo-3,4-dihydro-2H-benzo[b][1,4]thiazin-6-yl)-N-methylacetamide]",≤ 50 nM
10,"O=C(Cc1ccc2oc(=O)[nH]c2c1)NC(CN1CCCC1)c1cnn(Cc2ccccc2)c1 (stereo not shown) [Example 62, N-(1-(1-benzyl-1H-pyrazol-4-yl)-2-(pyrrolidin-1-yl)ethyl)-2-(2-oxo-2,3-dihydrobenzo[d]oxazol-5-yl)acetamide]",≤ 50 nM
11,"CCN(CC)C(=O)COc1cccc([C@@H](CN2CC[C@H](O)C2)N(C)C(=O)Cc2ccc3c(c2)NC(=O)C3)c1 [Example 41, N-((S)-1-(3-(2-(diethylamino)-2-oxoethoxy)phenyl)-2-((S)-3-hydroxypyrrolidin-1-yl)ethyl)-N-methyl-2-(2-oxoindolin-6-yl)acetamide]",≤ 50 nM
12,"CN(C(=O)Cc1ccc2c(c1)NC(=O)CS2(=O)=O)[C@H](CN1CC[C@H](O)C1)c1cccc(-c2ncon2)c1 [Example 212, N-((S)-1-(3-(1,2,4-oxadiazol-3-yl)phenyl)-2-((S)-3-hydroxypyrrolidin-1-yl)ethyl)-2-(1,1-dioxido-3-oxo-3,4-dihydro-2H-benzo[b][1,4]thiazin-6-yl)-N-methylacetamide2,2,2-trifluoroacetate]",≤ 50 nM
13,"CN(C(=O)Cc1ccc2c(c1)NC(=O)CO2)[C@H](CN1CC[C@H](O)C1)c1cccc(OCC(=O)O)c1 [Example 167, 2-(3-((S)-2-((S)-3-hydroxypyrrolidin-1-yl)-1-(N-methyl-2-(3-oxo-3,4-dihydro-2H-benzo[b][1,4]oxazin-6-yl)acetamido)ethyl)phenoxy)acetic acid]",≤ 50 nM
14,"CN(C(=O)Cc1ccc2c(c1)NC(=O)CS2)[C@H](CN1CC[C@H](O)C1)c1ccccc1 [Example 7, N-((S)-2-((S)-3-hydroxypyrrolidin-1-yl)-1-phenylethyl)-N-methyl-2-(3-oxo-3,4-dihydro-2H-benzo[b][1,4]thiazin-6-yl)acetamide]",≤ 50 nM
15,"CN(C(=O)Cc1ccc2c(c1)NC(=O)C(C)(C)S2(=O)=O)[C@H](CN1CC[C@H](O)C1)c1cccc(OC(F)(F)F)c1 [Example 148, 2-(2,2-dimethyl-1,1-dioxido-3-oxo-3,4-dihydro-2H-benzo[b][1,4]thiazin-6-yl)-N-((S)-2-((S)-3-hydroxypyrrolidin-1-yl)-1-(3-(trifluoromethoxy)phenyl)ethyl)-N-methylacetamide]",≤ 50 nM
16,"CN(C(=O)Cc1ccc2c(c1)NS(=O)(=O)C2)[C@H](CN1CC[C@H](O)C1)c1cccc(C(=O)NCC(F)(F)F)c1 [Example 195, 3-((S)-1-(2-(2,2-dioxido-1,3-dihydrobenzo[c]isothiazol-6-yl)-N-methylacetamido)-2-((S)-3-hydroxypyrrolidin-1-yl)ethyl)-N-(2,2,2-trifluoroethyl)benzamide]",≤ 50 nM
17,"O=C(Cc1ccc2sc(=O)[nH]c2c1)N[C@H](CN1CCCC1)c1ccccc1 [Example 4, (S)-2-(2-oxo-2,3-dihydrobenzo[d]thiazol-5-yl)-N-(1-phenyl-2-(pyrrolidin-1-yl)ethyl)acetamide]",51 to 100 nM
18,"CN(C(=O)Cc1ccc2c(c1)NC(=O)C2)[C@H](CN1CC[C@H](F)C1)c1cccc(OCC(=O)NS(C)(=O)=O)c1 [Example 162, N-((S)-2-((S)-3-fluoropyrrolidin-1-yl)-1-(3-(2-(methylsulfonamido)-2-oxoethoxy)phenyl)ethyl)-N-methyl-2-(2-oxoindolin-6-yl)acetamide]",≤ 50 nM
19,"CCN(CC)C(=O)c1cccc([C@@H](CN2CC[C@H](O)C2)N(C)C(=O)Cc2ccc3sc(=O)[nH]c3c2)c1 [Example 188, N,N-diethyl-3-((S)-2-((S)-3-hydroxypyrrolidin-1-yl)-1-(N-methyl-2-(2-oxo-2,3-dihydrobenzo[d]thiazol-5-yl)acetamido)ethyl)benzamide]",≤ 50 nM
20,"CC(C)CN(C(=O)Cc1ccc2c(c1)NC(=O)CS2(=O)=O)[C@H](CN1CCC(O)C1)c1cccc(OC(F)(F)F)c1 (stereo in doubt) [Example 140, 2-(1,1-dioxido-3-oxo-3,4-dihydro-2H-benzo[b][1,4]thiazin-6-yl)-N-((S)-2-((S)-3-hydroxypyrrolidin-1-yl)-1-(3-(trifluoromethoxy)phenyl)ethyl)-N-isobutylacetamide]",≤ 50 nM
21,"CN(C(=O)Cc1ccc2c(c1)NC(=O)C2)[C@H](CN1CC[C@H](O)C1)c1cccc(C#N)c1 [Example 156, N-((S)-1-(3-cyanophenyl)-2-((S)-3-hydroxypyrrolidin-1-yl)ethyl)-N-methyl-2-(2-oxoindolin-6-yl)acetamide]",≤ 50 nM
22,"CN(C(=O)Cc1ccc2c(c1)NC(=O)CS2(=O)=O)[C@H](CN1CCC(O)C1)c1ccccc1 (stereo in doubt) [Example 120, 2-(1,1-dioxido-3-oxo-3,4-dihydro-2H-benzo[b][1,4]thiazin-6-yl)-N-((S)-2-((S)-3-hydroxypyrrolidin-1-yl)-1-phenylethyl)-N-methylacetamide]",≤ 50 nM
23,"CN(C)C(=O)c1cccc([C@@H](CN2CC[C@H](O)C2)N(C)C(=O)Cc2ccc3sc(=O)[nH]c3c2)c1 [Example 40, 3-((S)-2-((S)-3-hydroxypyrrolidin-1-yl)-1-(N-methyl-2-(2-oxo-2,3-dihydrobenzo[d]thiazol-5-yl)acetamido)ethyl)-N,N-dimethylbenzamide-2,2,2-trifluoroacetate]",≤ 50 nM
24,"CN(C(=O)Cc1ccc2ncc(=O)[nH]c2c1)[C@H](CN1CC[C@H](O)C1)c1cccc(OCC(=O)O)c1 [Example 171, 2-(3-((S)-2-((S)-3-hydroxypyrrolidin-1-yl)-1-(N-methyl-2-(3-oxo-3,4-dihydroquinoxalin-6-yl)acetamido)ethyl)phenoxy)acetic acid]",≤ 50 nM
25,"CN(C(=O)Cc1ccc2c(c1)NC(=O)C2)[C@H](CN1CC[C@H](O)C1)c1cccc(OCC(N)=O)c1 [Example 26, N-((S)-1-(3-(2-amino-2-oxoethoxy)phenyl)-2-((S)-3-hydroxypyrrolidin-1-yl)ethyl)-N-methyl-2-(2-oxoindolin-6-yl)acetamide]",≤ 50 nM
26,"CN(C(=O)Cc1ccc2oc(=O)[nH]c2c1)[C@H](CN1CC[C@H](O)C1)c1cccc(C(N)=O)c1 [Example 160, 3-((S)-2-((S)-3-hydroxypyrrolidin-1-yl)-1-(N-methyl-2-(2-oxo-2,3-dihydrobenzo[d]oxazol-5-yl)acetamido)ethyl)benzamide]",≤ 50 nM
27,"CN(C(=O)Cc1ccc2c(c1)NC(=O)CS2)[C@H](CN1CC[C@H](O)C1)c1cccc(OC(F)(F)F)c1 [Example 134, N-((S)-2-((S)-3-hydroxypyrrolidin-1-yl)-1-(3-(trifluoromethoxy)phenyl)ethyl)-N-methyl-2-(3-oxo-3,4-dihydro-2H-benzo[b][1,4]thiazin-6-yl)acetamide]",≤ 50 nM
28,"Cc1cnc(-c2cccc([C@@H](CN3CC[C@H](O)C3)N(C)C(=O)Cc3ccc4c(c3)NC(=O)C4)c2)s1 [Example 215, N-((S)-2-((S)-3-hydroxypyrrolidin-1-yl)-1-(3-(5-methylthiazol-2-yl)phenyl)ethyl)-N-methyl-2-(2-oxoindolin-6-yl)acetamide]",≤ 50 nM
